One assay deals with Escherichia Coli. The following applies: cited from earlier work.
In a further assay the test system is Gram-negative bacteria. Conditions: in words; HBD-3: P. Aeruginosa, E. Coli; cited from earlier work.
For assay [1], the system named is Gram-positive bacteria (Streptococcus pyogenes, S. Aureus). Conditions: in words; including multi-resistant S. aureus and vancomycin-resistant Enterococcus Faecium; cited from earlier work.
Another assay deals with yeasts. Conditions: in words; b28: yeast C. albicans; cited from earlier work.
Another assay has as its system S. pneumoniae. Conditions: weak antimicrobial activity; cited from earlier work.
In a further assay the test system is S. Carnosous. The following applies: strong antimicrobial activity; cited from earlier work.
The next assay relates to S. cerevisiae. Conditions: weak antimicrobial activity; cited from earlier work.
Another assay relates to P. aeruginosa. The following applies: strong antimicrobial activity; cited from earlier work.
Assay [2] has as its system S. Aureus. The following applies: weak antimicrobial activity; cited from earlier work.
The next assay deals with B. cepacea. The following applies: weak antimicrobial activity; cited from earlier work.
In assay [3] the test system is Gram-positive and Gram-negative bacteria. Conditions: cited from earlier work.
In assay [4] the test system is S. Aureus. Nature of the assay: In vitro control of the biological activity of radiomarked HBD-3 (colony count on agar plates). Format: cell-based. The following applies: for Number of CFU existing in the plates: S. Aureus, 1.2 μg radiomarked HBD-3, 2 hours at 37° C. The protocol: (§1) The control was performed as described by Harwing et al. Methods Enzymology 1994, 236: 160-172. In particular, the aliquote portion (20 μl) of a bacterial suspension of S. Aureus containing 5×10^6 CFU/ml was incubated (2 hours at 37° C.) with 200 μl of radiomarked HBD-3 (1.2 μg) and 75 μl of a suitable dilution of a culture broth (Tryptic Soy Broth). After incubation, two samples with dilution factors equalling to 1:1345 and 1:13450 were derived from the mixture. Twentyfive μl of these samples were collected and sown with sterile rod onto plates containing a culture medium (agar plate). After incubation for 24 hours at 37° C. the colonies were counted. A value higher than 800 CFU was considered not assessable due to the difficulty in counting.
(§2) An analogous experiment was carried out, under the same conditions, by using 200 μl of sterile buffer instead of the radiomarked HBD-3.

Another assay concerns infection by S. Aureus. Nature of the assay: Infection detection by 99mTc-HBD-3 in experimental animal model (tissue counting: infection vs sterile inflammation vs normal muscle). Format: in vivo, Wistar male rats. The protocol:
Tissue samples were collected from the infection and inflammation seats after 1, 3 and 5 hours as from the injection of the tracer for each group of rats. Such samples were counted in a well-like counter. The countings expressed in terms of cpm/g of tissue were compared to the countings of properly collected normal muscle tissue samples. […] The results have been interpreted as indicating a specific bond of radiomarked recombinant HBD-3 with the S. Aureus.
The rats Nr. 3, 6 and 9 had received a weight dose in marked product higher than the rats Nr. 2, 5 and 8 which, in turn, had received a dose of the same product higher than the rats 1, 4 and 7. As it can be seen, a greater ratio between countings measured onto the abscess seat and those recorded onto the inflammation seat and onto the normal muscle corresponds to a higher dose of radiomarked peptide. Such run lets assuming a dose-depending ratio of dependency of the radiopharmaceutical captation.

Another assay deals with E. Coli. The assay can be described thus: In vitro control of the biological activity of radiomarked HBD-3 (colony count on agar plates). Format: cell-based. Conditions: for Number of CFU existing in the plates: E. Coli. The protocol:
as §1, §2
Both tests illustrated above, aimed at testing the sensibility of S. Aureus to the radiomarked HBD-3, were repeated, under identical conditions, with E. Coli with the same purposes. The results are shown in Table III and in FIGS. 1 and 2.

Setting [5] is: dilution 1:1345, >800 CFU not assessable.

No end group written: not given here.

Turning to “HBD-1: human β-defensin, constitutive expression (DHYNCVSSGGQCLYSACPIFTKIQGTCYRGKAKCCK; UniProt P60022 33-68, looked up)”, the Activity entry in the assay with Escherichia Coli (at micro-molecular concentrations) is on record as “Bactericide*”.

For “HBD-3: human beta-defensin-3, antimicrobial peptide weighing 5,15 kDa (GIINTLQKYYCRVRGGRCAVLSCLPKEEQIGKCSTRGRKCCRRKK; Beta-defensin 103; UniProt P81534 23-67, looked up)”, the Activity result (in the assay on Gram-negative bacteria; in [1]; in the assay with yeasts) was “Bactericide” each time.

As to “HBD-4: human β-defensin, constitutive expression (EFELDRICGYGTARCRKKCRSQEYRIGRCPNTYACCLRKWDESLLNRTKP; UniProt Q8WTQ1 23-72, looked up)”, the MIC result was “(MIC > 100 μg/ml);” with Escherichia Coli (weak antimicrobial activity); “(MIC > 100 μg/ml);” with S. pneumoniae; “(MIC = 4.5 μg/ml)” in the assay with S. Carnosous; “(MIC > 100 μg/ml);” in the assay with S. cerevisiae; “(MIC = 4.1 μg/ml)” in the assay with P. aeruginosa; “(MIC > 100 μg/ml);” with S. Aureus [2]. For the same substance, the MIC result with B. cepacea is recorded as “(MIC > 100 μg/ml);”.

“HNP-1: human α-defensin inside neutrophils”: in [3] (Gram-positive and Gram-negative bacteria), the Bactericide concentrations result was “greater than 100 μl;”.

Consider “HNP-2: truncated human α-defensin (CYCRIPACIAGERRYGTCIYQGRLWAFCC; Neutrophil defensin 2; UniProt P59665 66-94, looked up)”, for which the Activity entry in [3] (in words, relative to HNP-1) is on record as “Like HPN-1”.

For the substance “radiomarked HBD-3: recombinant human β-defensin-3 marked with 99mTc+ exa-coordinated with 3 molecules of CO and H2O (GIINTLQKYYCRVRGGRCAVLSCLPKEEQIGKCSTRGRKCCRRKK; cysteine pairing not given here; also: 99mTc(CO)3 label, site not given here; UniProt P81534 23-67, looked up)”, the “Number of CFU existing in the plates” value in the assay on S. Aureus [4] (setting [5]) is given as 348 CFU; in the assay on S. Aureus [4] (dilution 1:13450), 17 CFU; with E. Coli (setting [5]) it was over 800 CFU; with E. Coli (dilution 1:13450) it was 310 CFU. In addition, the “biological activity of HBD-3 after marking with 99mTc” value in the assay on S. Aureus [4] (towards S. Aureus (greater than towards E. Coli)) and in the assay with E. Coli (towards E. Coli (lower than towards S. Aureus)) was “maintained biological activity” in each case. The “tracer's captation in the infection seats relative to the inflammation seats” value in the assay with infection by S. Aureus (rats, 5 hours as from the tracer's injection, cpm/g of tissue) is 3 times. For the same substance, the “fixation of tracer, inflammatory lesions versus normal muscles” value with infection by S. Aureus (rats, in the whole experiment (1, 3 and 5 hours)) is on record as “no significant fixation differences”. The “tracer's captation, infection seats versus inflammation seats” value in the assay with infection by S. Aureus (rats, one hour as from the injection) was “no significant differences”. Besides, in the assay on infection by S. Aureus (single rats 1-9, doses from 1,6 to 5,2 μg), the “dependency of the radiopharmaceutical captation ratio (abscess vs inflammation seat and normal muscle) on dose” value was “dose-depending”.

These data come from patent US20100056443A1, “RADIOPHARMACEUTICAL TO BE USED IN DISTINCTION BETWEEN INFLAMMATIONS AND INFECTIONS IN ORTHOPAEDIC IMPLANTS” (priority 2006, published 2010).
